Literature values, collected in US6770617B2, “Softener composition” (Kao Corporation, priority 2001, dated 2004).

Details: 1-octanol/water; actual value if there was one, otherwise Clog P calculated with CLOGP v4.01

log P | SMILES
1.32 | OCCOCCOCCOc1ccccc1 [(c-3), Triethylene glycol monophenyl ether]
0.99 | CCCOC(C)COC(C)CO (stereo not drawn) [(c-2), Dipropylene glycol monopropyl ether]
0.54 | CCCCCOCC(O)CO (stereo not drawn) [(c-1), Pentyl glyceryl ether]
